Assay results reported in EP0349354A1, “Peptides PF10 to PF19 from a retro virus HIV, method for the synthesis of these peptides and their use, particularly in diagnostics” (INSTITUT PASTEUR, priority 1988, dated 1990).

Experiments:
anticorps anti-nef = test: ELISA for detection of anti-nef antibodies on coated peptides or nef; type: binding, humain; details: 500 ng coated per well; for intensité de l'immunoréactivité (OD), Serum 1: Serum 1, anti-nef positive; for intensité de l'immunoréactivité (OD), Serum 2: Serum 2, anti-nef positive; for intensité de l'immunoréactivité (OD), Serum 3: Serum 3, anti-nef positive; for intensité de l'immunoréactivité (OD), Serum 4: Serum 4, anti-nef positive; for intensité de l'immunoréactivité (OD), Serum 5: Serum 5, anti-nef positive; for intensité de l'immunoréactivité (OD), Serum 6: Serum 6, anti-nef positive; for intensité de l'immunoréactivité (OD), Serum 7: Serum 7, anti-nef positive; for intensité de l'immunoréactivité (OD), Serum 8: Serum 8, anti-nef positive; for intensité de l'immunoréactivité (OD), Serum 9: Serum 9, anti-nef positive; for intensité de l'immunoréactivité (OD), Serum 10: Serum 10, anti-nef positive; for intensité de l'immunoréactivité (OD), Serum 11: Serum 11, anti-nef positive; for intensité de l'immunoréactivité (OD), Serum 12: Serum 12, anti-nef positive; for intensité de l'immunoréactivité (OD), Serum 13: Serum 13, anti-nef positive; for intensité de l'immunoréactivité (OD), Serum 14: Serum 14, anti-nef positive; for intensité de l'immunoréactivité (OD), Serum 15: Serum 15, anti-nef positive; for intensité de l'immunoréactivité (OD), Serum 16: Serum 16, anti-nef positive; for intensité de l'immunoréactivité (OD), Serum 17: Serum 17, anti-nef positive; for intensité de l'immunoréactivité (OD), Serum 18: Serum 18, anti-nef positive; for intensité de l'immunoréactivité (OD), Serum 19: Serum 19, anti-nef positive; for intensité de l'immunoréactivité (OD), Serum 20: Serum 20, anti-nef positive; for intensité de l'immunoréactivité (OD), Serum 21: Serum 21, anti-nef positive; for intensité de l'immunoréactivité (OD), Serum 22: Serum 22, anti-nef positive; for intensité de l'immunoréactivité (OD), Serum 23: Serum 23, anti-nef positive; for intensité de l'immunoréactivité (OD), Serum 24: Serum 24, anti-nef positive; for intensité de l'immunoréactivité (OD), Serum 25: Serum 25, anti-nef positive; for intensité de l'immunoréactivité (OD), Serum 26: Serum 26, anti-nef positive; for intensité de l'immunoréactivité (OD), Serum 27: Serum 27, anti-nef positive; for intensité de l'immunoréactivité (OD), Serum 28: Serum 28, anti-nef positive; for intensité de l'immunoréactivité (OD), Serum 29: Serum 29, anti-nef positive; for intensité de l'immunoréactivité (OD), Serum 30: Serum 30, anti-nef positive; for intensité de l'immunoréactivité (OD), Serum 31: Serum 31, anti-nef positive; for intensité de l'immunoréactivité (OD), Serum 32: Serum 32, anti-nef negative control serum; for intensité de l'immunoréactivité (OD), Serum 33: Serum 33, anti-nef negative control serum
Experimental: Des plaques de microtitration à 96 puits ont été recouvertes une nuit avec 500 ng de protéine nef bactérienne, à 37°C ou avec 500 ng de peptides synthétiques par puits dans 50µl de PBS à pH 7,4. Après saturation avec 400 µl de PBS pH 7,4, contenant 5% de caséine, durant 1 heure à 37°C et lavage avec PBS à pH 7,4, 0,5% de BSA, 0,01% tween, 50 µl de sérums à différentes dilutions ont été ajoutés pendant 2 heures à 37°C. Après le rinçage, 50µl de complexes d'IgG de souris anti-humaine-(H + L)-peroxydase 1:1000 ont été incubés pendant 1 heure à 37°C. Après un nouveau rinçage, 100µl de OPD ont été ajoutés pendant 30mn à température ambiante dans l'obscurité. La réaction de l'enzyme a été arrêtée par addition de 50µl d'acide sulfurique 4N et la densité optique des plaques a été lue à 492 nm/620 nm. Les plaques recouvertes avec la caséine ont été utilisées comme contrôle négatif.
En vue d'étudier la possibilité d'utiliser des peptides synthétiques en tant qu'antigènes pour la détection d'anticorps anti-nef chez des patients infectés par HIV, 8 peptides synthétiques couvrant la totalité de la séquence de la protéine nef de HIV-1 (figure 4) ont été utilisés dans un test ELISA avec 31 sérums anti-nef positifs et 2 sérums anti-nef négatifs utilisés comme contrôle. Les recombinants nef ont été utilisés comme contrôle positif dans les tests ELISA et la caséine a été utilisée comme contrôle négatif. Les résultats de ces expériences sont donnés dans le tableau 4 qui illustre l'essai suivant: Essai ELISA sur 31 sérums anti-nef-positifs et 2 sérums anti-nef- négatifs, soit pré-recouverts avec des peptides synthétiques (PF 11 à PF 18), soit en utilisant nef, la caséine ou un mélange de peptides PF 12 et PF 17. Les sérums ont été sélectionnés au hasard parmi des sérums anti-nef positifs et anti-nefs négatifs testés par la méthode RIA en utilisant ¹²⁵I nef. L'intensité de l'immunoradioactivité est notée "-" pour une densité optique (OD) inférieure à 0,2; "+" pour OD = 0,2 à 0,4; "++" pour OD = 0,4 à 0,8 et "+++" pour OD = 0,8 à 2,0.

[1] = test system: anticorps anti-protéine F; test: Western blot test on peptide spots with sera of HIV-1 infected patients; type: binding, humain; design: key to réaction avec sérum CHA 1/300, 10µl / réaction avec sérum LOM 1/100, 10µl / réaction avec sérum LOM 1/100, 5µl / réaction avec sérum CHA 1/300, 5µl / réaction avec sérum CHA 1/300, 2µl / réaction avec sérum CHA 1/300, 1µl / réaction avec sérum 1545 1/200, 10µl: ++ signifiant une réaction plus marquée
Experimental: Pour les besoins du test, les différents peptides PF16, PF19, PF13, PF17 utilisés sont dilués à une concentration de 2 mg/ml.
Sur une bande de papier BIORAD pour transblot, on dépose différents spots : 1µl, 2µl, 5µl, 10µl.
Après séchage on pratique un test Western Blot classique en utilisant comme anticorps des sérums de patients infectés par le virus HIV-1, positifs pour la protéine F, à des dilutions variant de 1/100 à 1/300.
Les peptides testés permettent d'aboutir aux résultats résumés dans le tableau 2 avec trois sérums différents anti-F ++ (++ signifiant une réaction plus marquée).

Sequence	intensité de l'immunoréactivité (OD), Serum 1 (anticorps anti-nef)	intensité de l'immunoréactivité (OD), Serum 2 (anticorps anti-nef)	intensité de l'immunoréactivité (OD), Serum 3 (anticorps anti-nef)	intensité de l'immunoréactivité (OD), Serum 4 (anticorps anti-nef)	intensité de l'immunoréactivité (OD), Serum 5 (anticorps anti-nef)	intensité de l'immunoréactivité (OD), Serum 6 (anticorps anti-nef)	intensité de l'immunoréactivité (OD), Serum 7 (anticorps anti-nef)	intensité de l'immunoréactivité (OD), Serum 8 (anticorps anti-nef)	intensité de l'immunoréactivité (OD), Serum 9 (anticorps anti-nef)	intensité de l'immunoréactivité (OD), Serum 10 (anticorps anti-nef)	intensité de l'immunoréactivité (OD), Serum 11 (anticorps anti-nef)	intensité de l'immunoréactivité (OD), Serum 12 (anticorps anti-nef)	intensité de l'immunoréactivité (OD), Serum 13 (anticorps anti-nef)	intensité de l'immunoréactivité (OD), Serum 14 (anticorps anti-nef)	intensité de l'immunoréactivité (OD), Serum 15 (anticorps anti-nef)	intensité de l'immunoréactivité (OD), Serum 16 (anticorps anti-nef)	intensité de l'immunoréactivité (OD), Serum 17 (anticorps anti-nef)	intensité de l'immunoréactivité (OD), Serum 18 (anticorps anti-nef)	intensité de l'immunoréactivité (OD), Serum 19 (anticorps anti-nef)	intensité de l'immunoréactivité (OD), Serum 20 (anticorps anti-nef)	also measured
XASRDLEKHGAITSSNTAATNAACAWLEAQEEEEZ [PF13]	+ (pour OD = 0,2 à 0,4)	- (pour une densité optique (OD) inférieure à 0,2)	+++ (pour OD = 0,8 à 2,0)	+ (pour OD = 0,2 à 0,4)	- (pour une densité optique (OD) inférieure à 0,2)	- (pour une densité optique (OD) inférieure à 0,2)	++ (pour OD = 0,4 à 0,8)	++ (pour OD = 0,4 à 0,8)	++ (pour OD = 0,4 à 0,8)	- (pour une densité optique (OD) inférieure à 0,2)	- (pour une densité optique (OD) inférieure à 0,2)	- (pour une densité optique (OD) inférieure à 0,2)	- (pour une densité optique (OD) inférieure à 0,2)	++ (pour OD = 0,4 à 0,8)	- (pour une densité optique (OD) inférieure à 0,2)	- (pour une densité optique (OD) inférieure à 0,2)	- (pour une densité optique (OD) inférieure à 0,2)	- (pour une densité optique (OD) inférieure à 0,2)	- (pour une densité optique (OD) inférieure à 0,2)	- (pour une densité optique (OD) inférieure à 0,2)	intensité de l'immunoréactivité (OD), Serum 21 (anticorps anti-nef): - (pour une densité optique (OD) inférieure à 0,2); intensité de l'immunoréactivité (OD), Serum 22 (anticorps anti-nef): - (pour une densité optique (OD) inférieure à 0,2); intensité de l'immunoréactivité (OD), Serum 23 (anticorps anti-nef): - (pour une densité optique (OD) inférieure à 0,2); intensité de l'immunoréactivité (OD), Serum 24 (anticorps anti-nef): - (pour une densité optique (OD) inférieure à 0,2); intensité de l'immunoréactivité (OD), Serum 25 (anticorps anti-nef): - (pour une densité optique (OD) inférieure à 0,2); intensité de l'immunoréactivité (OD), Serum 26 (anticorps anti-nef): - (pour une densité optique (OD) inférieure à 0,2); intensité de l'immunoréactivité (OD), Serum 27 (anticorps anti-nef): - (pour une densité optique (OD) inférieure à 0,2); intensité de l'immunoréactivité (OD), Serum 28 (anticorps anti-nef): - (pour une densité optique (OD) inférieure à 0,2); intensité de l'immunoréactivité (OD), Serum 29 (anticorps anti-nef): ++ (pour OD = 0,4 à 0,8); intensité de l'immunoréactivité (OD), Serum 30 (anticorps anti-nef): - (pour une densité optique (OD) inférieure à 0,2); intensité de l'immunoréactivité (OD), Serum 31 (anticorps anti-nef): - (pour une densité optique (OD) inférieure à 0,2); intensité de l'immunoréactivité (OD), Serum 32 (anticorps anti-nef): - (pour une densité optique (OD) inférieure à 0,2); intensité de l'immunoréactivité (OD), Serum 33 (anticorps anti-nef): - (pour une densité optique (OD) inférieure à 0,2); réaction avec sérum 1545 1/200, 10µl ([1]; serum 1545 diluted 1/200, spot 10µl of peptide at 2 mg/ml): tr; réaction avec sérum CHA 1/300, 1µl ([1]; serum CHA diluted 1/300, spot 1µl of peptide at 2 mg/ml): tr; réaction avec sérum CHA 1/300, 2µl ([1]; serum CHA diluted 1/300, spot 2µl of peptide at 2 mg/ml): tr
XCRGGLEGMFYSERRHKILNIYLEKEEGIIADZ [PF19]	–	–	–	–	–	–	–	–	–	–	–	–	–	–	–	–	–	–	–	–	réaction avec sérum CHA 1/300, 5µl ([1]; serum CHA diluted 1/300, spot 5µl of peptide at 2 mg/ml): ++; réaction avec sérum CHA 1/300, 10µl ([1]; serum CHA diluted 1/300, spot 10µl of peptide at 2 mg/ml): ++; réaction avec sérum LOM 1/100, 5µl ([1]; serum LOM diluted 1/100 (column outside the heading of positive sera), spot 5µl of peptide at 2 mg/ml): tr; réaction avec sérum LOM 1/100, 10µl ([1]; serum LOM diluted 1/100 (column outside the heading of positive sera), spot 10µl of peptide at 2 mg/ml): tr; réaction avec sérum P.6. 1/200, 5µl ([1]; serum P.6. diluted 1/200, spot 5µl of peptide at 2 mg/ml): tr
XGGKWSKSSVVGWPTVRERMRRAEPAADGVGAYCZ [PF11]	- (pour une densité optique (OD) inférieure à 0,2)	- (pour une densité optique (OD) inférieure à 0,2)	- (pour une densité optique (OD) inférieure à 0,2)	- (pour une densité optique (OD) inférieure à 0,2)	- (pour une densité optique (OD) inférieure à 0,2)	- (pour une densité optique (OD) inférieure à 0,2)	++ (pour OD = 0,4 à 0,8)	- (pour une densité optique (OD) inférieure à 0,2)	- (pour une densité optique (OD) inférieure à 0,2)	- (pour une densité optique (OD) inférieure à 0,2)	++ (pour OD = 0,4 à 0,8)	+ (pour OD = 0,2 à 0,4)	- (pour une densité optique (OD) inférieure à 0,2)	- (pour une densité optique (OD) inférieure à 0,2)	- (pour une densité optique (OD) inférieure à 0,2)	- (pour une densité optique (OD) inférieure à 0,2)	- (pour une densité optique (OD) inférieure à 0,2)	- (pour une densité optique (OD) inférieure à 0,2)	+++ (pour OD = 0,8 à 2,0)	- (pour une densité optique (OD) inférieure à 0,2)	intensité de l'immunoréactivité (OD), Serum 21 (anticorps anti-nef): + (pour OD = 0,2 à 0,4); intensité de l'immunoréactivité (OD), Serum 22 (anticorps anti-nef): - (pour une densité optique (OD) inférieure à 0,2); intensité de l'immunoréactivité (OD), Serum 23 (anticorps anti-nef): - (pour une densité optique (OD) inférieure à 0,2); intensité de l'immunoréactivité (OD), Serum 24 (anticorps anti-nef): - (pour une densité optique (OD) inférieure à 0,2); intensité de l'immunoréactivité (OD), Serum 25 (anticorps anti-nef): +++ (pour OD = 0,8 à 2,0); intensité de l'immunoréactivité (OD), Serum 26 (anticorps anti-nef): +++ (pour OD = 0,8 à 2,0); intensité de l'immunoréactivité (OD), Serum 27 (anticorps anti-nef): - (pour une densité optique (OD) inférieure à 0,2); intensité de l'immunoréactivité (OD), Serum 28 (anticorps anti-nef): + (pour OD = 0,2 à 0,4); intensité de l'immunoréactivité (OD), Serum 29 (anticorps anti-nef): + (pour OD = 0,2 à 0,4); intensité de l'immunoréactivité (OD), Serum 30 (anticorps anti-nef): - (pour une densité optique (OD) inférieure à 0,2); intensité de l'immunoréactivité (OD), Serum 31 (anticorps anti-nef): +++ (pour OD = 0,8 à 2,0); intensité de l'immunoréactivité (OD), Serum 32 (anticorps anti-nef): - (pour une densité optique (OD) inférieure à 0,2); intensité de l'immunoréactivité (OD), Serum 33 (anticorps anti-nef): - (pour une densité optique (OD) inférieure à 0,2)
